Experimental data published in ChEMBL document CHEMBL5137022, “Antitumor Activity of Rutaecarpine in Human Colorectal Cancer Cells by Suppression of Wnt/β-Catenin Signaling” (J Nat Prod, 2022).
The source made the active and inactive calls. The rule behind the calls is not given here.

Columns and labels:
[1] = system: CCD-18Co; test: Antiproliferative activity against human CCD-18Co cells assessed as reduction in cell viability measured after 72 hrs by SRB assay; assay type: functional, cell-based
[2] = system: LS174T; test: Induction of cell cycle arrest in human LS174T cells assessed as accumulation of cells at S phase at 10 uM measured after 24 hrs by RNase A/propidium iodide staining based flow cytometric analysis (reference value: 14.5 %); assay type: functional
[3] = system: LS174T; test: Inhibition of cell invasion in human LS174T cells incubated for 24 hrs by transwell assay; assay type: functional, cell-based; settings: dose 2-8 µM, DDE = dose-dependent effect
[4] = system: Mus musculus; test: Downregulation of snail protein expression in tumor of BALB/c mouse xenografted with human LS174T cells at 10 to 30 mg/kg, ip administered 3 times per week for 21 days by Western blot analysis; assay type: functional, organism-based; settings: dose 10-30 mg/kg, time 21.0 day
[5] = Toxicity in BALB/c nude mouse xenografted with human LS174T cells assessed as effect on body weight at 30 mg/kg, IP administered 3 times per week for 21 days; assay type: organism-based; settings: in vivo, 504 h, time 21 day
[6] = system: LS174T; test: Antiproliferative activity against human LS174T cells harboring beta-catenin mutant assessed as reduction in cell viability measured after 72 hrs by SRB assay; assay type: functional, cell-based
[7] = system: LS174T; test: Induction of cell cycle arrest in human LS174T cells assessed as accumulation of cells at G0/G1 phase at 20 uM measured at 12 hrs by RNase A/propidium iodide staining based flow cytometric analysis (reference value: 74.8 %); assay type: functional
[8] = system: LS174T; test: Induction of apoptosis in human LS174T cells assessed as upregulation of cleaved caspase-9 expression measured after 48 hrs by Western blot analysis; assay type: functional, cell-based; settings: dose 20-40 µM, DDE = dose-dependent effect
[9] = system: Mus musculus; test: Downregulation of c-myc protein expression in tumor of BALB/c mouse xenografted with human LS174T cells at 10 to 30 mg/kg, ip administered 3 times per week for 21 days by Western blot analysis; assay type: functional, organism-based; settings: dose 10-30 mg/kg, time 21.0 day
[10] = system: Mus musculus; test: Downregulation of cyclin-D1 expression in tumor of BALB/c mouse xenografted with human LS174T cells at 10 to 30 mg/kg, ip administered 3 times per week for 21 days by Western blot analysis; assay type: functional, organism-based; settings: dose 10-30 mg/kg, time 21.0 day
[11] = system: LS174T; test: Induction of cell cycle arrest in human LS174T cells assessed as accumulation of cells at sub-G1 phase at 20 uM measured at 36 hrs by RNase A/propidium iodide staining based flow cytometric analysis (reference value: 0.7 %); assay type: functional
[12] = system: RKO; test: Antiproliferative activity against human RKO cells harboring wild type beta-catenin assessed as reduction in cell viability measured after 72 hrs by SRB assay; assay type: functional, cell-based
[13] = system: LS174T; test: Induction of cell cycle arrest in human LS174T cells assessed as accumulation of cells at G2/M phase at 20 uM measured at 12 hrs by RNase A/propidium iodide staining based flow cytometric analysis (reference value: 12.9 %); assay type: functional
[14] = system: LS174T; test: Downregulation of MMP-7 expression in human LS174T cells at up to 8 uM incubated for 24 hrs by Western blot analysis; assay type: functional, cell-based
[15] = system: LS174T; test: Induction of cell cycle arrest in human LS174T cells assessed as accumulation of cells at S phase at 20 uM measured at 36 hrs by RNase A/propidium iodide staining based flow cytometric analysis (reference value: 11.4 %); assay type: functional
[16] = system: LS174T; test: Induction of cell cycle arrest in human LS174T cells assessed as accumulation of cells at sub-G1 phase at 10 uM measured after 24 hrs by RNase A/propidium iodide staining based flow cytometric analysis (reference value: 1.3 %); assay type: functional
[17] = Inhibition of Wnt/beta-catenin transactivation signalling in HEK293 cells transfected with renilla luciferase and TOPFlash reporter gene incubated for 24 hrs by dual-luciferase assay; assay type: cell-based; settings: Homo sapiens, HEK293, 24 h
[18] = system: HCT-15; test: Antiproliferative activity against human HCT-15 cells harboring wild type beta-catenin assessed as reduction in cell viability measured after 72 hrs by SRB assay; assay type: functional, cell-based; settings: HCT-15, 72 h
[19] = system: LS174T; test: Induction of cell cycle arrest in human LS174T cells assessed as accumulation of cells at G0/G1 phase at 10 uM measured after 24 hrs by RNase A/propidium iodide staining based flow cytometric analysis (reference value: 71.7 %); assay type: functional
[20] = system: LS174T; test: Induction of cell cycle arrest in human LS174T cells assessed as downregulation of cyclin E expression measured after 24 hrs by Western blot analysis; assay type: functional, cell-based; settings: dose 5-20 µM, DDE = dose-dependent effect
[21] = system: LS174T; test: Induction of cell cycle arrest in human LS174T cells assessed as upregulation of p21 expression measured after 24 hrs by Western blot analysis; assay type: functional, cell-based; settings: dose 5-20 µM, DDE = dose-dependent effect
[22] = system: LS174T; test: Induction of cell cycle arrest in human LS174T cells assessed as accumulation of cells at S phase at 20 uM measured after 24 hrs by RNase A/propidium iodide staining based flow cytometric analysis (reference value: 14.5 %); assay type: functional
[23] = system: LS174T; test: Induction of cell cycle arrest in human LS174T cells assessed as accumulation of cells at G2/M phase at 20 uM measured after 24 hrs by RNase A/propidium iodide staining based flow cytometric analysis (reference value: 12.2 %); assay type: functional
[24] = system: Mus musculus; test: Downregulation of N-cadherin expression in tumor of BALB/c mouse xenografted with human LS174T cells at 10 to 30 mg/kg, ip administered 3 times per week for 21 days by immunohistochemical based analysis; assay type: functional, organism-based; settings: dose 10-30 mg/kg, time 21.0 day
[25] = system: LS174T; test: Downregulation of N-cadherin expression in human LS174T cells at up to 8 uM incubated for 24 hrs by Western blot analysis; assay type: functional, cell-based
[26] = system: LS174T; test: Induction of cell cycle arrest in human LS174T cells assessed as accumulation of cells at G2/M phase at 20 uM measured at 24 hrs by RNase A/propidium iodide staining based flow cytometric analysis (reference value: 12.9 %); assay type: functional
[27] = system: LS174T; test: Downregulation of cyclin D1 expression in human LS174T cells at 2.5 to 20 uM incubated for 24 hrs by Western blot analysis; assay type: functional, cell-based; settings: dose 2.5-20 µM
[28] = system: LS174T; test: Induction of cell cycle arrest in human LS174T cells assessed as accumulation of cells at S phase at 20 uM measured at 24 hrs by RNase A/propidium iodide staining based flow cytometric analysis (reference value: 11.4 %); assay type: functional
[29] = system: LS174T; test: Downregulation of beta-catenin expression in human LS174T cells at 2.5 to 20 uM incubated for 24 hrs by Western blot analysis; assay type: functional, cell-based; settings: dose 2.5-20 µM
[30] = system: LS174T; test: Induction of cell cycle arrest in human LS174T cells assessed as accumulation of cells at sub-G1 phase at 5 uM measured after 24 hrs by RNase A/propidium iodide staining based flow cytometric analysis (reference value: 1.3 %); assay type: functional
[31] = system: LS174T; test: Induction of cell cycle arrest in human LS174T cells assessed as downregulation of CDK4 expression measured after 24 hrs by Western blot analysis; assay type: functional, cell-based; settings: dose 5-20 µM, DDE = dose-dependent effect
[32] = system: LS174T; test: Inhibition of cell migration in human LS174T cells assessed as reduction in wound closure incubated for 24 hrs by wound healing assay; assay type: functional, cell-based; settings: dose 2-8 µM, DDE = dose-dependent effect
[33] = system: LS174T; test: Downregulation of snail expression in human LS174T cells at up to 8 uM incubated for 24 hrs by Western blot analysis; assay type: functional, cell-based
[34] = system: LS174T; test: Induction of apoptosis in human LS174T cells assessed as upregulation of cleaved PARP expression measured after 48 hrs by Western blot analysis; assay type: functional, cell-based; settings: dose 20-40 µM, DDE = dose-dependent effect

In the case of O=c1c2ccccc2nc2n1CCc1c-2[nH]c2ccccc12 [RUTAECARPINE], the IC50 [1] is reported as > 50 µM, the Activity [2] is reported as 7.2% and the inhibition [3] is reported as “Dde”. For the same compound, the Activity [4] was “Active”, the Activity [5] was “Non-Toxic” and the IC50 [6] was 6.1 µM. The Activity [7] was 80.3%, the Activity [8] was “Dde” and the Activity [9] was “Active”. For the same compound, the Activity [10] was “Active”, the Activity [11] was 6.1% and the IC50 [12] was > 50 µM. For the same compound, the Activity [13] was 16.8%, the Activity [14] was “Active” and the Activity [15] was 2.1%. The Activity [16] was 1.3%, the IC50 [17] was 4.3 µM and the IC50 [18] was > 50 µM. For the same compound, the Activity [19] was 81.6%, the Activity [20] was “Dde” and the Activity [21] was “Dde”. The Activity [22] was 4.1%, the Activity [23] was 7% and the Activity [24] was “Active”. The Activity [25] was “Active”, the Activity [26] was 5.6% and the Activity [27] was “Active”. The Activity [28] was 2.2%, the Activity [29] was “Active” and the Activity [30] was 1.4%. For the same compound, the Activity [31] was “Dde”, the inhibition [32] was “Dde” and the Activity [33] was “Active”. The Activity [34] was “Dde”.
